Here are results for 19 compounds from patent publication US20100216777A1, “AMINOPYRAZINE ANALOGS FOR TREATING GLAUCOMA AND OTHER RHO KINASE-MEDIATED DISEASES AND CONDITIONS” (ALCON, INC., priority 2004, published 2010).

pIC50: −log10 of the molar value. Counter-ions that a name gives are not always drawn.

The target in this experiment is T1, Human Recombinant ROCK-II Enzyme (ROKα/ROCK-II, aa 11-552) (Homo sapiens, UniProt O75116).
T1 construct: (ROKα/ROCK-II, (aa 11-552), human active); purchased Upstate Biotechnology Co., Lake Placid, N.Y. 14-451
T1 sequence (O75116 11-552): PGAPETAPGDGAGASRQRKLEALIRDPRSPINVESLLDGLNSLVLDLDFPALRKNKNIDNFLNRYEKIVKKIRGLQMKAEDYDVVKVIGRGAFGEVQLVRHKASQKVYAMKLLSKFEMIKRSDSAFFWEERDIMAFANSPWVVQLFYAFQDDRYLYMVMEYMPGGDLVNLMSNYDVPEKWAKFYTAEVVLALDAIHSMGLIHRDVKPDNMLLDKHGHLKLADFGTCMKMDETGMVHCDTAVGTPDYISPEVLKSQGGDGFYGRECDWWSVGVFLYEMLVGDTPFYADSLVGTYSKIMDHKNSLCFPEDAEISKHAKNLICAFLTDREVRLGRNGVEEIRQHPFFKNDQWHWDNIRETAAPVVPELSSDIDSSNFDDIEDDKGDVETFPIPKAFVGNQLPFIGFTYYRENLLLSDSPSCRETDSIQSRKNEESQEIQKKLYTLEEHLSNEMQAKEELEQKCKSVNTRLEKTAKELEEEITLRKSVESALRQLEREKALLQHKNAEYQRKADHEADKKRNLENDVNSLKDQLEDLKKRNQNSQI
Description: ROCK-II inhibition, fluorescence polarization assay (IMAP ROCK II kit). Format: biochemical. The note with it: substrate 200 nM, ATP 10 μM, 60 min at 23° C., read-out: Enzyme Inhibition Constants (IC50) against Human Recombinant ROCK-II Enzyme. Here is the method:
The ability of certain compounds of Formula (I) to inhibit rho kinase was evaluated by means of in vitro assays. Human recombinant Rho kinase (ROKα/ROCK-II, (aa 11-552), human active, catalog #14-451, Upstate Biotechnology Co., Lake Placid, N.Y.), MgCl2/ATP cocktail, and enzyme substrate (Upstate) are used.
The fluorescence polarization assays are performed using a Biomek 2000 Robotic Workstation (Beckman Instruments, Palo Alto, Calif.) in a 96-well plate format. The assays are performed utilizing the IMAP ROCK II kit (Molecular Devices, Sunnyvale, Calif.) as follows. Substrate and ATP concentrations used are 200 nM and 10 μM, respectively, while the enzyme concentration is 3.96×10^−3 units per well. The substrate, enzyme, and ATP dilutions are made with the reaction buffer provided by the vendor. Test compounds are diluted in 10:10 DMSO-ethanol (vol/vol). For the actual assays, the various components are added into black, clear bottom, 96-well plates (Costar, Corning, N.Y.) in a final volume of 20 μl per well. After the enzyme reaction (60 min at 23° C.), 60 μl of the binding solution (IMAP kit, provided by vendor) is added per well and incubated for an additional 30 minutes in the dark at 23° C. Fluorescence polarization of the reaction mixtures is then measured on the Analyst™ HT instrument (Molecular Devices, Sunnyvale, Calif.).
The data generated are then analyzed using a non-linear, iterative, sigmoidal-fit computer program purchased from IDBS (Emeryville, Calif.) and as previously described (Sharif et al., J. Pharmacol. Exp. Ther. 286:1094-1102, 1998; Sharif et al., J. Pharmacol. Expt. Ther. 293:321-328, 2000; Sharif et al., J. Ocular Pharmacol. Ther. 18:141-162, 2002a; Sharif et al., J. Pharmac. Pharmacol. 54:539-547, 2002b) to generate the inhibition constants for the test compounds.
(In general: Polarisation of emitted light reports the rotation of a fluorescent probe.)
By pIC50 is commonly meant the IC50 on a negative log10 scale, so that one unit is a factor of ten. Regarding `CN1CCCN(c2nc(-c3ccncc3)cnc2N)CC1` [Example 1, 3-(4-Methyl-1,4-diazepan-1-yl)-5-(pyridin-4-yl)pyrazin-2-amine], the pIC50 was 8.52.

Consider `Cc1cnccc1-c1cnc(N)c(N2CCCN(C)CC2)n1` [Example 2, 3-(4-Methyl-1,4-diazepan-1-yl)-5-(3-methylpyridin-4-yl)pyrazin-2-amine hydrochloride], for which the pIC50 was 7.24.

Consider `CN1CCCN(c2nc(-c3cc[nH]n3)cnc2N)CC1` [Example 3, 3-(4-Methyl-1,4-diazepan-1-yl)-5-(1H-pyrazol-3-yl)pyrazin-2-amine], for which the pIC50 was 8.55.

Consider `CN1CCCN(c2nc(-c3ccnc4[nH]ccc34)cnc2N)CC1` [Example 4, 3-(4-Methyl-1,4-diazepan-1-yl)-5-(1H-pyrrolo[2,3-b]pyridin-4-yl)pyrazin-2-amine], for which the pIC50 was 9.28.

`CN1CCCN(c2nc(-c3cccc4[nH]ncc34)cnc2N)CC1` [Example 5, 5-(1H-indazol-4-yl)-3-(4-methyl-1,4-diazepan-1-yl)pyrazin-2-amine dihydrochloride]: the negative-log IC50 (pIC50) is 7.60.

Consider `CN1CCCN(c2nc(-c3ccc4[nH]ncc4c3)cnc2N)CC1` [Example 7, 5-(1H-Indazol-5-yl)-3-(4-methyl-1,4-diazepan-1-yl)pyrazin-2-amine dihydrochloride], for which the pIC50 was 9.02.

Take `CN1CCCN(c2nc(-c3ccnc(N)c3)cnc2N)CC1` [Example 8, 5-(2-Aminopyridin-4-yl)-3-(4-methyl-1,4-diazepan-1-yl)pyrazin-2-amine trihydrochloride]: the pIC50 is 7.28.

In the case of `Nc1ncc(-c2ccncc2)nc1N(CCO)CCO` [Example 9, 2,2′-(3-Amino-6-(pyridin-4-yl)pyrazin-2-ylazanediyl)diethanol], the pIC50 was 7.66.

Regarding `Nc1ncc(-c2ccncc2)nc1N1CCCCC1` [Example 10, 3-(Piperidin-1-yl)-5-(pyridin-4-yl)pyrazin-2-amine], the pIC50 is 7.23.

Take `Nc1ncc(-c2ccncc2)nc1N1CCC(CO)CC1` [Example 11, (1-(3-Amino-6-(pyridin-4-yl)pyrazin-2-yl)piperidin-4-yl)methanol]: the pIC50 was 7.77.

With `Nc1ncc(-c2ccncc2)nc1N1CCC(O)CC1` [Example 12, 1-(3-Amino-6-(pyridin-4-yl)pyrazin-2-yl)piperidin-4-ol], the pIC50 was 8.16.

Consider `CN(C)C1CCN(c2nc(-c3ccncc3)cnc2N)CC1` [Example 13, 3-(4-(Dimethylamino)piperidin-1-yl)-5-(pyridin-4-yl)pyrazin-2-amine], for which the pIC50 is 8.19.

Turning to `CN1CCC(Nc2nc(-c3ccncc3)cnc2N)CC1` [Example 14, N,N-(1-Methylpiperidin-4-yl)-6-(pyridin-4-yl)pyrazine-2,3-diamine], the pIC50 was 8.46.

In the case of `CN1CCCC(Nc2nc(-c3ccncc3)cnc2N)C1` (stereo not shown) [Example 15, N,N-(1-Methylpiperidin-3-yl)-6-(pyridin-4-yl)pyrazine-2,3-diamine], the pIC50 was 8.26.

For `Nc1ncc(-c2ccncc2)nc1NC1CCNCC1` [Example 16, N,N-2-(Piperidin-4-yl)-6-(pyridin-4-yl)pyrazine-2,3-diamine], the pIC50 was 9.09.

Take `Nc1ncc(-c2ccncc2)nc1NC1CCCNC1` (stereo not shown) [Example 17, N,N-(Piperidin-3-yl)-6-(pyridin-4-yl)pyrazine-2,3-diamine]: the pIC50 was 9.68.

On to `CN1CCC(N(C)c2nc(-c3ccncc3)cnc2N)CC1` [Example 18, N,N-Methyl-N,N-(1-methylpiperidin-4-yl)-6-(pyridin-4-yl)pyrazine-2,3-diamine], for which the pIC50 was 8.02.

For the compound `Nc1ncc(-c2ccncc2)nc1NC1CCNC1` (stereo not shown) [Example 19, 6-(Pyridin-4-yl)-N^2-(pyrrolidin-3-yl)pyrazine-2,3-diamine], the pIC50 is 10.19.

Turning to `CN1CCC(Oc2nc(-c3ccncc3)cnc2N)CC1` [Example 20, 3-(1-Methylpiperidin-4-yloxy)-5-(pyridin-4-yl)pyrazin-2-amine], the pIC50 is 8.25.
